Source: patent publication US12435101B2, “Isochroman compound” (Zhejiang Yangli Pharmaceutical Technology Co., Ltd., priority 2020, dated 2025)

Test system: NCI-H460 cells
Test: Antiproliferative activity on NCI-H460 cell line (CellTiter-Glo)
Assay type: cell-based
Details: Homo sapiens; NCI-H460 (lung cancer, high AKR1C3); 2 hours with drug, then 70 hours drug-free
Method: RPMI-1640 medium and penicillin/streptomycin antibiotics were purchased from Vicente, and fetal bovine serum was purchased from Biosera. CellTiter-Glo (Cell Viability Chemiluminescence Detection Reagent) reagent was purchased from Promega. The NCI-H460 cell line was purchased from Nanjing Kebai Biotechnology Co., Ltd. Nivo Multimode Plate Reader (PerkinElmer).
NCI-H460 cells (lung cancer) were seeded in a 96-well plate, 80 μL of cell suspension per well, which contained 4000 NCI-H460 cells. The cell plate was incubated overnight in a carbon dioxide incubator. The compound to be tested was diluted 5-fold to the ninth concentration with a multi-channel pipette, that is, the compound to be tested was diluted from 2 mM to 5.2 nM, and an experiment for the sample assayed in duplicate was set up. 78 μL of medium was added to the middle plate, and 2 μL of the gradient-diluted compound per well was transferred to the middle plate according to the corresponding position, then 20 μL per well was transferred to the cell plate after mixing. […] Another cell plate was prepared, and the signal value was read as the maximum value (Max value in the following equation) on the day of drug addition to participate in data analysis. […] The multimode plate reader was used for readings. […]. […]

Structure (SMILES)	IC50
O=[N+]([O-])c1cc2c(cc1Oc1cccnc1F)C(OP(=O)(N1CC1)N1CC1)COC2 (centres unmarked) [Compound 1]	3.8 nM
O=[N+]([O-])c1cc2c(cc1Oc1ccccc1F)C(OP(=O)(N1CC1)N1CC1)COC2 (centres unmarked) [Compound 2]	21.6 nM
